Assay results from article PMC11571207, “Stereorandomized Oncocins with Preserved Ribosome Binding and Antibacterial Activity” (Journal of Medicinal Chemistry, 2024).
Converted amounts (≈) assume the structure as drawn. Non-standard residues stand in square brackets, D forms with d. Residues, ends and D or L forms follow the SMILES beside them.

How the values were obtained:
[1] = test system: A. baumannii ATCC19606; experiment: microbe, parasite or virus in culture; conditions: for MIC A. baumannii, 12.5% MHB / MIC A. baumannii, Full MHB: A. baumannii ATCC19606, 16–20 h at 37 °C; for MIC A. baumannii, 12.5% MHB: 12.5% Müller–Hinton medium; for MIC A. baumannii, Full MHB: full Müller–Hinton medium; for MIC A. baumannii ATCC19606: supplement CSV
Excerpt: (§1) We tested antibacterial effects against the Gram-negative bacteria Escherichia coli, Klebsiella pneumoniae, Pseudomonas aeruginosa, and Acinetobacter baumannii and the Gram-positive methicillin-resistant Staphylococcus aureus (MRSA).
(§2) Bacterial growth assay (Figure S1), transmission electron microscopy (Figure S6), serum stability assay (Figure S7), circular dichroism spectral recording (Figures S8 and S9), antimicrobial and hemolysis activity assays (MIC and MHC), and vesicle leakage assay were carried out as described in earlier publications.[43],[44]
(§3) Minimum inhibitory concentration assay
(§4) Antimicrobial activity was assayed against P. aeruginosa PAO1, K. pneumoniae NCTC418, E. coli W3110, A. baumannii ATCC 19606, methicillin-resistant S. aureus COL (MRSA), and for selected peptides on P. aeruginosa PA14 and the polymyxin-B-resistant derivative PA14 2P4, as well as the clinical isolates ZEM-1A and ZEM9A, K. pneumoniae OXA-48, S. aureus Newman, Enterobacter cloacae and Burkholderia cenocepacia. The minimal inhibitory concentration (MIC) was determined by using broth microdilution method. A colo ny of bacteria was picked and grown in Luria-Bertani (LB) medium overnight at 37°C. For E. coli BW25113 sbmA::kan the medium was supplemented with 25 mg/L of kanamycin. The next day, the culture was then regrown in LB medium to log phase (OD600 = 0.6 to 0.8), which lasted approximately 4 h, and diluted to an OD600 of 0.022 in the desired medium. Stock solutions of 1 mg/mL of the samples were prepared in sterilized milliQ water and diluted to the beginning concentration of 64 μg/mL in 300 μL Mueller Hinton (MH)-medium. The diluted samples were added to first well of 96-well microtiter plate (TPP, untreated, Faust Laborbedarf, AG, Schaffhausen) and diluted serially by ½. Finally, 4 μL of the bacterial suspension was inoculated into the sample solutions (150 μL/well) with a final inoculation of about 5∙10^5 CFU/mL. The plates were then incubated at 37°C for 15-18h. For each assay, sterility (broth only) and growth control (broth with bacterial inoculum, without antibiotics) were checked with two columns in the plate. The next day, 15 μL of 3-(4,5-dimethylthiazol-2-yl)-2,5-diphenyltetrazolium bromide (MTT) was added to each well of the plate, such a way that MIC was defined as the lowest concentration of the peptide that inhibited visible growth of the tested

[2] = test system: E. coli W3110; experiment: microbe, parasite or virus in culture; conditions: for MIC E. coli, 12.5% MHB / MIC E. coli, Full MHB: E. coli W3110, 16–20 h at 37 °C, broth microdilution; for MIC E. coli, 12.5% MHB: 12.5% Müller–Hinton medium; for MIC E. coli, Full MHB: full Müller–Hinton medium; for MIC E. coli W3110: supplement CSV
Excerpt: as §1, §2, §3, §4

[3] = test system: K. pneumoniae NCTC 418; experiment: microbe, parasite or virus in culture; conditions: for MIC K. pneumoniae, 12.5% MHB / MIC K. pneumoniae, Full MHB: K. pneumoniae NCTC 418, 16–20 h at 37 °C; for MIC K. pneumoniae, 12.5% MHB: 12.5% Müller–Hinton medium; for MIC K. pneumoniae, Full MHB: full Müller–Hinton medium; for MIC K. pneumoniae NCTC418: supplement CSV
Excerpt: as §1, §2, §3, §4

[4] = test system: P. aeruginosa PAO1; experiment: microbe, parasite or virus in culture; conditions: for MIC P. aeruginosa, 12.5% MHB / MIC P. aeruginosa, Full MHB: P. aeruginosa PAO1, 16–20 h at 37 °C; for MIC P. aeruginosa, 12.5% MHB: 12.5% Müller–Hinton medium; for MIC P. aeruginosa, Full MHB: full Müller–Hinton medium; for MIC P. aeruginosa PAO1: supplement CSV
Excerpt: as §1, §2, §3, §4

[5] = test system: S. aureus COL (MRSA); experiment: microbe, parasite or virus in culture; conditions: for MIC S. aureus, 12.5% MHB / MIC S. aureus, Full MHB: S. aureus COL (MRSA), 16–20 h at 37 °C; for MIC S. aureus, 12.5% MHB: 12.5% Müller–Hinton medium; for MIC S. aureus, Full MHB: full Müller–Hinton medium; for MIC S. aureus COL (MRSA): supplement CSV
Excerpt: as §1, §2, §3, §4

[6] = test system: human red blood cells; experiment: Hemolysis assay, minimum hemolytic concentration; conditions: for Haemolysis on hRBC, MHC: 2.5% human red blood cells (final) in 10 mM phosphate, 150 mM NaCl, pH 7.4, 25 °C, 4 h, visual inspection; for MHC human red blood cells: supplement CSV

Row | Compound | MIC A. baumannii, 12.5% MHB [1] [µg/mL] | MIC A. baumannii, Full MHB [1] [µg/mL] | MIC A. baumannii ATCC19606 ([1]; 12.5% MH pH 7.4) [µg/mL] | MIC A. baumannii ATCC19606 ([1]; full MH pH 7.4) [µg/mL] | MIC E. coli, 12.5% MHB [2] [µg/mL] | MIC E. coli, Full MHB [2] [µg/mL] | MIC E. coli W3110 ([2]; 12.5% MH pH 7.4) [µg/mL] | MIC E. coli W3110 ([2]; full MH pH 7.4) [µg/mL] | MIC K. pneumoniae, 12.5% MHB [3] [µg/mL] | MIC K. pneumoniae, Full MHB [3] [µg/mL] | MIC K. pneumoniae NCTC418 ([3]; 12.5% MH pH 7.4) [µg/mL] | MIC K. pneumoniae NCTC418 ([3]; full MH pH 7.4) [µg/mL] | MIC P. aeruginosa, 12.5% MHB [4] [µg/mL] | MIC P. aeruginosa, Full MHB [4] [µg/mL] | MIC P. aeruginosa PAO1 ([4]; 12.5% MH pH 7.4) [µg/mL] | MIC P. aeruginosa PAO1 ([4]; full MH pH 7.4) [µg/mL] | MIC S. aureus, 12.5% MHB [5] | MIC S. aureus, Full MHB [5] | MIC S. aureus COL (MRSA) ([5]; 12.5% MH pH 7.4) [µg/mL] | MIC S. aureus COL (MRSA) ([5]; full MH pH 7.4) [µg/mL] | also measured
1 | CC[C@H](C)[C@H](NC(=O)[C@H](CCCNC(=N)N)NC(=O)[C@H](CCCNC(=N)N)NC(=O)[C@@H]1CCCN1C(=O)[C@@H]1CCCN1C(=O)[C@H](CCCNC(=N)N)NC(=O)[C@@H]1CCCN1C(=O)[C@H](CCCNC(=N)N)NC(=O)[C@@H]1CCCN1C(=O)[C@H](CC(C)C)NC(=O)[C@H](Cc1ccc(O)cc1)NC(=O)[C@@H]1CCCN1C(=O)[C@H]1CCCN1C(=O)[C@H](CCCCN)NC(=O)[C@H](CC(=O)O)NC(=O)[C@@H](N)C(C)C)C(=O)N[C@@H](Cc1ccc(O)cc1)C(=O)N[C@@H](CC(N)=O)C(=O)N[C@@H](CCCNC(=N)N)C(N)=O [DP4-Onc] (H-VDK[dP]PYLPRPRPPRRIYNR-NH2) | 8 (≈ 3.35 µM) | 64 (≈ 26.8 µM) | 8 (≈ 3.35 µM) | 64 (≈ 26.8 µM) | 4 (≈ 1.67 µM) | 16 (≈ 6.69 µM) | 4 (≈ 1.67 µM) | 16 (≈ 6.69 µM) | 4 (≈ 1.67 µM) | 32 (≈ 13.4 µM) | 4 (≈ 1.67 µM) | 32 (≈ 13.4 µM) | > 16 | > 64 | >16 | >64 | >64 / 64 μg/mL | >64 / 64 μg/mL | 64 (≈ 26.8 µM) | >64 | Haemolysis on hRBC, MHC [6]: >1000 µg/mL; MHC human red blood cells [6]: >1000 µg/mL
2 | CC[C@H](C)[C@H](NC(=O)[C@H](CCCNC(=N)N)NC(=O)[C@H](CCCNC(=N)N)NC(=O)[C@@H]1CCCN1C(=O)[C@@H]1CCCN1C(=O)[C@H](CCCNC(=N)N)NC(=O)[C@@H]1CCCN1C(=O)[C@H](CCCNC(=N)N)NC(=O)[C@H]1CCCN1C(=O)[C@H](CC(C)C)NC(=O)[C@H](Cc1ccc(O)cc1)NC(=O)[C@@H]1CCCN1C(=O)[C@@H]1CCCN1C(=O)[C@H](CCCCN)NC(=O)[C@H](CC(=O)O)NC(=O)[C@@H](N)C(C)C)C(=O)N[C@@H](Cc1ccc(O)cc1)C(=O)N[C@@H](CC(N)=O)C(=O)N[C@@H](CCCNC(=N)N)C(N)=O [DP8-Onc] (H-VDKPPYL[dP]RPRPPRRIYNR-NH2) | 16 (≈ 6.69 µM) | > 64 | 16 (≈ 6.69 µM) | >64 | 4 (≈ 1.67 µM) | 32 (≈ 13.4 µM) | 4 (≈ 1.67 µM) | 32 (≈ 13.4 µM) | 16 (≈ 6.69 µM) | > 64 | 16 (≈ 6.69 µM) | >64 | 16 (≈ 6.69 µM) | > 64 | 16 (≈ 6.69 µM) | >64 | >64 / 64 μg/mL | >64 / 64 μg/mL | 64 (≈ 26.8 µM) | >64 | Haemolysis on hRBC, MHC [6]: >1000 µg/mL; MHC human red blood cells [6]: >1000 µg/mL
3 | CC[C@@H](C)[C@@H](NC(=O)[C@@H](CCCNC(=N)N)NC(=O)[C@@H](CCCNC(=N)N)NC(=O)[C@H]1CCCN1C(=O)[C@H]1CCCN1C(=O)[C@H](CCCNC(=N)N)NC(=O)[C@@H]1CCCN1C(=O)[C@H](CCCNC(=N)N)NC(=O)[C@@H]1CCCN1C(=O)[C@H](CC(C)C)NC(=O)[C@H](Cc1ccc(O)cc1)NC(=O)[C@@H]1CCCN1C(=O)[C@@H]1CCCN1C(=O)[C@H](CCCCN)NC(=O)[C@H](CC(=O)O)NC(=O)[C@@H](N)C(C)C)C(=O)N[C@H](Cc1ccc(O)cc1)C(=O)N[C@H](CC(N)=O)C(=O)N[C@H](CCCNC(=N)N)C(N)=O [D8Cterm-Onc] (H-VDKPPYLPRPR[dP][dP][dR][dR][dI][dY][dN][dR]-NH2) | 8 (≈ 3.35 µM) | 64 (≈ 26.8 µM) | 8 (≈ 3.35 µM) | 64 (≈ 26.8 µM) | 1 (≈ 0.418 µM) | 16 (≈ 6.69 µM) | 1 (≈ 0.418 µM) | 16 (≈ 6.69 µM) | 2 (≈ 0.837 µM) | 4 (≈ 1.67 µM) | 2 (≈ 0.837 µM) | 4 (≈ 1.67 µM) | 4 (≈ 1.67 µM) | > 64 | 4 (≈ 1.67 µM) | >64 | >64 / 64 μg/mL | >64 / 64 μg/mL | 64 (≈ 26.8 µM) | >64 | Haemolysis on hRBC, MHC [6]: >1000 µg/mL; MHC human red blood cells [6]: >1000 µg/mL
